Consider two compounds from patent US20020006447A1, “Anti-chlamydia agent” (Mitsui Norin Co., Ltd., priority 1998, published 2002).

The test system of the assay is C. trachomatis. Put plainly: C. trachomatis inclusion body formation in HeLa 229 cells after pre-incubation with single catechins (Example 2). Conditions: incubated for 90 minutes at 37° C. Format: cell-based, Chlamydia trachomatis. As to the method: As test Chlamydia was used C. trachomatis strain. Chlamydia capable of forming 10^4 inclusion bodies was incubated at 37° C. for 90 minutes in a SPG solution containing (−)-epicatechin gallate or (−)-epigallocatechin gallate in various concentratIons. After completion of the incubation, each solution was inoculated onto Hela 229 cell cultivated by monolayer culture and adsorbed by centrifugation at 1,500 rpm for 60 minutes. Thereafter, the inoculum was removed and culture medium for Chlamydia (Eagle Minimum Essential Culture Medium containing 1 μg/ml cycloheximide) was added and cultivation was performed at 37° C. for 72 hours. After completion of cultivation, the culture medium was removed and the cells were fixed with methanol and then stained with FITC-labeled anti-C. trachomatis monoclonal antibody, followed by counting the number of inclusion bodies of C. trachomatis.

On to `O=C(O[C@@H]1Cc2c(O)cc(O)cc2O[C@@H]1c1ccc(O)c(O)c1)c1cc(O)c(O)c(O)c1` [(−)-epicatechin gallate], for which the “concentration that completely inhibited the growth of C. trachomatis” value was 0.8 mg/mL.

As for (−)-epigallocatechin gallate, the “concentration that completely inhibited the growth of C. trachomatis” value came to 1.6 mg/mL.
